Entries after “also recorded” stand apart in the source; their conditions may differ. Square brackets hold non-standard residues; d marks the D form. Ends that are not written are not given here.
Legend:
S. vaccaria PCY1 = assay: In vitro assay of recombinant S. vaccaria PCY1 with wild type and mutant presegetalin substrates, products detected by LC/MS; type: biochemical, Saponaria vaccaria; design: key to CP (cyclic peptide product detected by LC/MS after in vitro assay) / LP (linear peptide product detected by LC/MS after in vitro assay): +=presence; −=absence; conditions: for cyclic peptide production by S. vaccaria PCY1 (in words) / linear peptide production by S. vaccaria PCY1 (in words): LC/MS and MS/MS; for CP (cyclic peptide product detected by LC/MS after in vitro assay) / LP (linear peptide product detected by LC/MS after in vitro assay): substrates tested for cyclization by S. vaccaria PCY1
S. vaccaria PCY1, sequence (as listed by the source): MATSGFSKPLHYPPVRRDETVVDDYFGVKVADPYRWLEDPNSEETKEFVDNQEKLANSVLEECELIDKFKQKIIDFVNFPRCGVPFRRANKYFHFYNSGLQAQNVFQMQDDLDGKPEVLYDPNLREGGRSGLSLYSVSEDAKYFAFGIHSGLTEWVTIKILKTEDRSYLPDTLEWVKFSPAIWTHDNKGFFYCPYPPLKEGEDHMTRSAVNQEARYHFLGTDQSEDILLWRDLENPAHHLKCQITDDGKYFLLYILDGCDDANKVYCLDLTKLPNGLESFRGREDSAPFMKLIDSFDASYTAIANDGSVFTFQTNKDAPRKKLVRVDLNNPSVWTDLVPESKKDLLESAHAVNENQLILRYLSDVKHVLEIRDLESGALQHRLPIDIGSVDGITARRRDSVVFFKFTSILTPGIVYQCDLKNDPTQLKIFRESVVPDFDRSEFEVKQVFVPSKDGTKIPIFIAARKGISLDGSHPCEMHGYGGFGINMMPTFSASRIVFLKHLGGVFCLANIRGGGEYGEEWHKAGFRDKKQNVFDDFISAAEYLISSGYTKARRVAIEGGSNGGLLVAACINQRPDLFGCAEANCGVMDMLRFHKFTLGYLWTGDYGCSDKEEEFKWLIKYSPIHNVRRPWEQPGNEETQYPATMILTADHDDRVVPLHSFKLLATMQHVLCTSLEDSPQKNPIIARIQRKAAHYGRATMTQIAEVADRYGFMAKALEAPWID
Description: The gene corresponding to S. vaccaria PCY1 was cloned and expressed in E. coli with a His-tag. HisPur Cobalt Resin™ (Thermo Scientific) was used for purification of recombinant PCY1. The purified PCY1 was quantified using BCA method (Pierce; http://http://www.piercenet.com/) with BSA as a calibration standard. The in vitro assay contained 20 mM Tris buffer (pH 8.5), 100 mM NaCl, 5 mM DTT, 0.2 mg BSA, and 1.5 μg of substrates (wild type and mutant presegetalins, procured from Bio Basic Inc with >90% purity) and was initiated by the addition of 0.3 μg of PCY1, in a total reaction volume of 100 μl. The assay was incubated at 30° C. for up to 1 h and stopped by placing reactions in dry ice. The assays were lyophilized, re-suspended in methanol, evaporated and re-suspended in 50:50 v/v methanol/water for LC/MS analysis.
Ion trap ESI+ LC/MS/MS analysis was used to detect production of cyclic peptides using an Agilent 6320 Ion Trap LC/MS system under default Smart Parameter settings. The analyzer and ion optics were adjusted to achieve proper resolution (Agilent Installation Guide #G2440-90105) using the ESI Tuning Mix (Agilent #G2431A). The mass spectrometer scanned from 50 to 2200 mass units at 8100 mass units sec^−1 with an expected peak width of 0.35 atomic mass units. For auto MS/MS, the trap isolation width was 4 atomic mass units. The associated Agilent 1200 LC was fitted with a Zorbax 300 EXTEND-C18 column (150×2.1 mm, 3.5 μm particle size) maintained at 35° C. The binary solvent system consisted of 90:10 v/v water/acetonitrile containing 0.1% formic acid and 0.1% ammonium formate (solvent A) and 10:90 v/v water/acetonitrile containing 0.1% formic acid and 0.1% ammonium formate (solvent B). The separation gradient was 90:10 A/B to 50:50 A/B in 3 ml over 20 min.
In order to characterize substrate specificity of PCY1 and understand the segetalin A biosynthetic mechanism, a total of 44 substrates (Table 3) were tested for the PCY1 activity and the results are briefly summarized in Table 3. The last two columns in Table 3 summarize product type detected by LC/MS after in vitro assays (CP is cyclic peptide and LP is linear peptide, +=presence, −=absence, NA=not applicable). The 44 substrates were classified as follows: • (A) Presegetalin A1 [14,32], a wild type (WT) precursor of segetalin A • (B) Truncated mutants of presegetalin A1[14,32] • (C) Alanine scanning mutants corresponding to variants of the mature segetalin A sequence • (D) Alanine scanning mutants of the C-terminal region of presegetalin A1[14,32] • (E) D-amino acid mutants corresponding to variants of the mature segetalin A sequence • (F) Insertion mutants corresponding to variants of the mature segetalin A sequence • (G) Other A-class and F-class presegetalins • (H) Putative cyclic peptide precursors from Dianthus caryophyllus

[1] = system: Dianthus superbus PCY1-c250; assay: In vitro assay of recombinant Dianthus superbus PCY1-c250 with presegetalin substrates, LC/MS; type: biochemical
Dianthus superbus PCY1-c250, sequence (as listed by the source): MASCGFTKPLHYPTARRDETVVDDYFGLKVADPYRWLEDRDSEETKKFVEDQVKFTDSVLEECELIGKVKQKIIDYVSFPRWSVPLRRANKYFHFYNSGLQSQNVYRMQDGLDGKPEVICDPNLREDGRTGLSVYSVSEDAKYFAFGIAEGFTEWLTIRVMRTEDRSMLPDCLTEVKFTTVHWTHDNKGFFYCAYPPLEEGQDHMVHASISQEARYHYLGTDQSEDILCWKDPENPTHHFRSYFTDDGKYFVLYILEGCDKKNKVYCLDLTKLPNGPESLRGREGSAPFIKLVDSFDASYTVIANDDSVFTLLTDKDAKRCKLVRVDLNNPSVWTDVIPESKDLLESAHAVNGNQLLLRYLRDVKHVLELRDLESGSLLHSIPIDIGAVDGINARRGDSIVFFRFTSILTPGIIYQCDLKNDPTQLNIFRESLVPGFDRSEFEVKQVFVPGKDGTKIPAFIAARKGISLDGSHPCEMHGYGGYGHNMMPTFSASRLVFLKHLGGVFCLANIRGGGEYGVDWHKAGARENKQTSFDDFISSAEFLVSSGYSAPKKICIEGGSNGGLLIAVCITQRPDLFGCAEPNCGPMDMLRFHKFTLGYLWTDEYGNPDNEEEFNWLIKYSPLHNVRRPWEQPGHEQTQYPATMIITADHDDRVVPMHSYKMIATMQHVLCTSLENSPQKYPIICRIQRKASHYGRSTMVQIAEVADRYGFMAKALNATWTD
Text: (§1) To test for activity of the homologues of S. vaccaria PCY1, two cDNAs encoding were cloned from Dianthus superbus (c250 and c1141 contigs) and one from Silene vulgaris (c150 contig) essentially as described for Saponaria vaccaria PCY1 in Example 2. These were named Dianthus superbus Pcy1-c250, Dianthus superbus Pcy1-c1141 and Silene vulgaris Pcy1-c150, Briefly, gene specific forward and reverse primers were used to PCR amplify the aforementioned contigs based on homologue identification in EST collections from Dianthus leaves and Silene roots. The Dianthus superbus (c250 and c1141 contigs) and Silene vulgaris (c150 contig) PCY1 homologues were assayed with 15 μg/mL presegetalin A1[14,32] in vitro as previously described for semi-purified plant extracts to determine whether they can catalyze the production of segetalin A from presegetalin A1[14,32]. The assays were initiated by the addition of 120 ng (c250), or 138 ng (c1141) purified recombinant Dianthus superbus or 4 μg Silene vulgaris Pcy1 respectively, in a total reaction volume of 100 μL. […] Thus, there are additional enzymes in the Caryophyllaceae family, which have the same enzymatic activity as S. vaccaria PCY1.
Dianthus superbus PCY1-c250 was also assayed with the alanine scan mutants and the activities were compared with those of S. vaccaria PCY1.

[2] = system: Dianthus superbus PCY1-c1141; assay: In vitro assay of recombinant Dianthus superbus PCY1-c1141 with presegetalin substrates, LC/MS; type: biochemical
Dianthus superbus PCY1-c1141, sequence (as listed by the source): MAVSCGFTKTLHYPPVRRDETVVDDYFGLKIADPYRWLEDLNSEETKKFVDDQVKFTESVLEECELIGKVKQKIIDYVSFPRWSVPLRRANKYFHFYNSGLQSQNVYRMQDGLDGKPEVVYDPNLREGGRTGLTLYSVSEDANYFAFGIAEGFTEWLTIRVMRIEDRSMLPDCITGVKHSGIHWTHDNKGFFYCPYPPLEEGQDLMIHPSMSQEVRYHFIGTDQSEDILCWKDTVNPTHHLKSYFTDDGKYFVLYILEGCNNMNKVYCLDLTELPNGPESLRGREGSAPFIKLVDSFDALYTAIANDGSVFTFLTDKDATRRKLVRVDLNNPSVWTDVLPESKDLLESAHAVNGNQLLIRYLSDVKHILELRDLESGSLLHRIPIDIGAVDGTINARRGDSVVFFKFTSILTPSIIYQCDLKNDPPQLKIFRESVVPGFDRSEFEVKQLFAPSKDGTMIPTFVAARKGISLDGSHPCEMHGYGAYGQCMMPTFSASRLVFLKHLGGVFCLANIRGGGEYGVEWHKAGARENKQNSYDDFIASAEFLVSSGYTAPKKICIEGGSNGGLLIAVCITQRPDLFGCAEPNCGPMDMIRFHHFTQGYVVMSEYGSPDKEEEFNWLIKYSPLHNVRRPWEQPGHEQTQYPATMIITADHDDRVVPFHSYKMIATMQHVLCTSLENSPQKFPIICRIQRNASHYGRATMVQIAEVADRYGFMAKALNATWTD
Text: as §1
Seven mutant peptides containing D-amino acids were synthesized (No. 26 to 32 in Table 3) and tested with S. vaccaria PCY1 under optimized in vitro conditions. In initial experiments, each amino acid corresponding to segetalin A was substituted with its D-amino acid consecutively from position 15 to 19 (No. 26 to 30). Glycine at position 14 is achiral and no substitution was required. […] To test this possibility two peptides were synthesized No. 31 and No. 32 in Table 3. […] The cyclic peptides were detected as diagnostic ions (M+H)^+ and (M+Na)^+ in LC/MS and their presence was further confirmed by MS/MS analysis. […] The cyclic peptide produced from No. 32 has alternating D- and L-forms of amino acids (with the exception of the glycine), which gives it the potential to self-assemble into nanotube under appropriate conditions (Gadhiri 1993).

[3] = system: Silene vulgaris Pcy1-c150; assay: In vitro assay of recombinant Silene vulgaris PCY1-c150 with presegetalin A1[14,32], LC/MS; type: biochemical; conditions: 15 μg/mL presegetalin A1[14,32], 4 μg enzyme
Silene vulgaris Pcy1-c150, sequence (as listed by the source): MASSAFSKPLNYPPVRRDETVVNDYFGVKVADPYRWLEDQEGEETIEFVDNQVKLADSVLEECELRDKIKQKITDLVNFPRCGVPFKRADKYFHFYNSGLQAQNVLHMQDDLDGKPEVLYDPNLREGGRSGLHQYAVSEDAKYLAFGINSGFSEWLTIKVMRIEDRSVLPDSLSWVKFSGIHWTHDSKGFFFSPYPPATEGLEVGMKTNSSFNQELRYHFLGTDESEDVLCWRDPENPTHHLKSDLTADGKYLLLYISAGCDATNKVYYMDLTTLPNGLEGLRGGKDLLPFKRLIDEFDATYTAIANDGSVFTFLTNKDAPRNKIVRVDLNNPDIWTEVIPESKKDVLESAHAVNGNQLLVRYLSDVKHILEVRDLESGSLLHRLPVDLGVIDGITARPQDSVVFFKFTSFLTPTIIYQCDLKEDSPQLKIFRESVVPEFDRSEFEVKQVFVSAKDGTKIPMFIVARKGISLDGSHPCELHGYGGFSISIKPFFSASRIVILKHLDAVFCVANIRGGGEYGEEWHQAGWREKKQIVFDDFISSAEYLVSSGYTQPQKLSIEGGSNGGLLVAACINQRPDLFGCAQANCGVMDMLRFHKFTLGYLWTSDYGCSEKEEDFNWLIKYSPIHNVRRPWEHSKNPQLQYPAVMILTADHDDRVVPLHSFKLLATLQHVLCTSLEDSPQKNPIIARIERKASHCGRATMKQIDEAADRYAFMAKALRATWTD
Text: as §1

| Substance | cyclic peptide production by S. vaccaria PCY1 (in words) (S. vaccaria PCY1) | linear peptide production by S. vaccaria PCY1 (in words) (S. vaccaria PCY1) | CP (cyclic peptide product detected by LC/MS after in vitro assay) (S. vaccaria PCY1) | LP (linear peptide product detected by LC/MS after in vitro assay) (S. vaccaria PCY1) | cyclic peptide production by D. superbus PCY1-c250 (in words) [1] | linear peptide production by D. superbus PCY1-c250 (in words) [1] | cyclic peptide production by D. superbus PCY1-c1141 (in words) [2] | production of segetalin A by Silene vulgaris c150 polypeptide (in words) [3] |
| --- | --- | --- | --- | --- | --- | --- | --- | --- |
| 7 (AVPVWAFQAKDVENASAPV; Presegetalin A1[14,32] variant aa14 = alanine) [compound 7] | less product | highest amount of linear peptide product | + | + | no detectable cyclic peptide | a large amount of linear peptide was detected |  |  |
| 31 (GV[dP]VAAFQAKDVENASAPV) [compound 31] | made cyclic peptides |  | + | − |  |  | made cyclic peptides |  |
| 32 (GV[dP]V[dA]AFQAKDVENASAPV) [compound 32] | made cyclic peptides |  | + | − |  |  | made cyclic peptides; also recorded: relatively more active; also recorded: higher than the activity of S. vaccaria PCY1 |  |
| Presegetalin A1[14,32] (GVPVWAFQAKDVENASAPV; listed as Saponaria vaccaria) [No. 1] | showed the formation of segetalin A | linear segetalin A |  |  | strong enzymatic activity |  | strong enzymatic activity | weaker than that of S. vaccaria PCY1 |
| 11 (GVPVAAFQAKDVENASAPV; Presegetalin A1[14,32] variant aa18 = alanine) [compound 11] |  |  | + | − | relatively more cyclic peptide than did S. vaccaria PCY1 |  |  |  |
| 42 (FGTHGLPAPIQVPNGMDDACAPM; Presegetalin J1[14,36]) [compound 42] | cyclic peptide products were detected from all of them |  | + | − |  |  |  |  |
| Presegetalin A1[14,32]F20A (GVPVWAAQAKDVENASAPV; Presegetalin A1[14,32] F20A) [No. 13] |  | presence of linear peptide was confirmed by MS/MS analysis |  |  |  |  |  |  |
| 21 (GVPVWAFQAKDVENVSAPV; Presegetalin A1[14,32] A28V) [compound 21] | sensitive |  | + | + |  |  |  |  |
| 13 (GVPVWAAQAKDVENASAPV; Presegetalin A1[14,32] F20A) [compound 13] | sensitive |  | + | + |  |  |  |  |
| 27 (GV[dP]VWAFQAKDVENASAPV) [compound 27] |  |  | + | − |  |  |  |  |
| 4 (GVPVWAFQAKD; Presegetalin A1[14,24]) [compound 4] |  | almost equivalent to the linear peptide formed from the WT substrate | − | + |  |  |  |  |
| 41 (FSASYSSKPIQTQVSNGMDNASAPV; Presegetalin F1[14,38]) [compound 41] | cyclic peptide products were detected from all of them |  | + | − |  |  |  |  |
| 10 (GVPAWAFQAKDVENASAPV; Presegetalin A1[14,32] variant aa17 = alanine) [compound 10] |  |  | + | + |  |  |  |  |
| 17 (GVPVWAFQAKAVENASAPV; Presegetalin A1[14,32] D24A) [compound 17] | sensitive |  | + | + |  |  |  |  |
| 18 (GVPVWAFQAKDAENASAPV; Presegetalin A1[14,32] V25A) [compound 18] | relatively higher amounts of segetalin A than that produced from WT substrate |  | + | + |  |  |  |  |

Source: patent US9394561B2, “Cyclic peptide production” (National Research Council of Canada, priority 2011, dated 2016)
